In data set [1] the target is T1, NUDT1 (Homo sapiens, UniProt P36639). As to the kind of experiment: NUDT1 in vitro activity assay (malachite green). The format is biochemical. Also noted: Full length NUDT1 gene synthesis; N-terminal His tag with thrombin site from pET28a(+) (NdeI/XhoI) (N, cleaved yes); made in house; host or cells: E. coli BL21 (DE3). Conditions: 100 μM.
The target in the next data set is T2, AIFM1 (Homo sapiens, UniProt O95831).
T2 construct: made in house; host or cells: E. coli Rosetta2
As to the kind of experiment: Gel-based labelling of recombinant AIFM1 spiked into HEK-293 lysate. Conditions: excess compound added prior to probe. The format is binding. The protocol: AIFM1 expression & purification
Recombinant AIFM1 was expressed in a Rosetta2 E. coli strain. Bacterial growth was conducted in LB media supplemented with riboflavin and FAD shaking at 37°C and 180 rpm. Expression was induced with 1.0 mM IPTG and incubated for further 16 h before harvesting. Cells were harvested on ice in PBS and cell pellets stored at -20°C. Cells were lysed by French press and the 6xHis-tagged constructs were purified by Immobilized Metal Affinity Chromatography using Ni Sepharose (6 Fast Flow, GE). The centrifugation-cleared bacterial lysate was bound to beads in binding buffer (200 mM NaCl, 20 mM Tris/Cl pH = 7.4). […]
For gel-based fluorescence labelling of recombinant AIFM1, 1.7 µM recombinant protein was spiked - in to PBS or PBS -diluted HEK293 cell lysate ( 100 µg per reaction sample). […]
Click Master-mix (8 µL, 100 µM TAMRA-azide, Baseclick, Neuried, Germany, Cat# BCFA-008-10, 500 µM BTTAA ligand, Jena Bioscience, Jena, Germany, CLK -067, 1 mM CuSO4) was added and the CuAAC reaction started by addition of 2 µL of aq. sodium ascorbate (c end= 2 mM). […] Fluorescence scanning was performed using a Las-3000 fluorescence darkbox (Fujifilm, Minato, Japan) with a Fujinon VRF 43LMD Lens, 605DF40 filter and 520 nm EPI excitation wavelength and loading controls were developed with Coomassie stain afterwards. […]

In data set [2] the target is T1, NUDT1. Briefly: Gel-based AfBPP labelling of recombinant NUDT1 spiked into human lysate. The class given is binding. Also noted: Full length NUDT1 gene synthesis; N-terminal His tag with thrombin site from pET28a(+) (NdeI/XhoI) (N, cleaved yes); made in house; host or cells: E. coli BL21 (DE3). Conditions: parent compound added before probe.
The subject of data set [3] is periodontal ligament cell line (PDL‐hTERT). Briefly: Whole proteome analysis and pathway analysis of treated PDL-hTERT cells. Conditions: […] μM, 3 days, versus vehicle. Also on record: dose or concentration left out as unconfirmed. The format is cell-based, human.
The test system of the next data set is PDL-hTERT cells. As to the kind of experiment: Live/dead staining and microscopy (morphology). The class given is cell-based. Also on record: dose or concentration left out as unconfirmed. Conditions: […] µM, 7 days.
The test system of data set [4] is IDH2 mRNA in PDL-hTERT cells. As to the kind of experiment: Quantitative PCR of IDH2 mRNA. The format is cell-based, human. Also noted: dose or concentration left out as unconfirmed. Conditions: […] µM, GAPDH housekeeper.
Data set [5] deals with T1, NUDT1. As to the kind of experiment: Thermal protein profiling (TPP) in intact HEK293 cells. Also noted: endogenous in cells; host or cells: HEK293. Conditions: 1 h. The class given is cell-based. On the procedure:
incubated in a thermoshaker (600 rpm, 16 h, 37 °C). The digest was stopped by adding 10 μL formic
acid (FA) and vortexing followed by centrifugation (12,000 ×g, 3 min, room temperature). 50 mg
SepPak C18 columns (Waters, Milford, USA, Cat# WAT054960) were equilibrated by gravity flow two
times with 1 mL acetonitrile and three times with 1 mL aqueous 0.1% trifluoroacetic acid (TFA) solution.
Subsequently, the samples were loaded by gravity flow, washed three times with 1 mL aqueous 0.1%
TFA solution and once with 0.5 mL aqueous 0.5% formic acid (F A) solution. Elution of peptides into
new 2.0 mL Protein LoBind Eppendorf tubes was performed by two times addition of 250 μL elution
buffer (80% acetonitrile, 0.5% FA) by gravity flow followed by 250 μL elution buffer by vacuum flow
until all liquid was eluted from the column. The eluates were lyophilized. Before MS measurement the
(brief centrifugation after each step).
Thermal protein profiling (TPP)
The experiment was performed similarly to TPP-TR experiments described by Franken et al. with minor
modifications.5 HEK293 cells were grown in 8 T175 flasks to approx. 80-90% confluency. Per replicate
volume of 0.1 N HCl as vehicle control. Per condition two replicates were used, leading to a total of 8
T175 flasks. The cells were washed with PBS, detached with accutase, the two flask per replicate […]

Where two headings read alike, the source gives them in different places.

What is called ΔTm is the change in melting temperature against a reference sample.

T2 sequence (O95831 102-613): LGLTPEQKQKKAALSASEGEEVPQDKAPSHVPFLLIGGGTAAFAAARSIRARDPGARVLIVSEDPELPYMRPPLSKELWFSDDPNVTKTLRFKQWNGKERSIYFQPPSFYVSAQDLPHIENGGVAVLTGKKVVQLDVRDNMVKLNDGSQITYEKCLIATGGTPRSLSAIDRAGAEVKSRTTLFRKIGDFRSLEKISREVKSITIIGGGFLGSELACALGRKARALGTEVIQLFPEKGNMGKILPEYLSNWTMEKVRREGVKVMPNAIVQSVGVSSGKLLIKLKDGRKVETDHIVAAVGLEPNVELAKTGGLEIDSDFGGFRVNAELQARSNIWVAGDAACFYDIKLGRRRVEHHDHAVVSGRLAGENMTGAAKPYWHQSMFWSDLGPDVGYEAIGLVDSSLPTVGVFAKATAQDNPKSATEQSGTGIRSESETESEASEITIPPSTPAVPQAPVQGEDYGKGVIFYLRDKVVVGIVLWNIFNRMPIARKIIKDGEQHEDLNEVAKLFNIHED

As to `O=C(O)c1cn(C2CC2)c2cc(N3CCNCC3)c(F)cc2c1=O` [Ciprofloxacin], on NUDT1 [1], the “NUDT1 in vitro activity, inhibition” value was “significant partial inhibition”. Further, on AIFM1, the “competition of Cipro P1 labelling of recombinant AIFM1” value was “strong reduction of signal intensity”. In addition, on NUDT1 [2], the “competition of Cipro P2 / Levo P2 labeling of recombinant NUDT1” value is recorded as “competed”. Besides, in data set [3], the “regulation of ETC complex I and IV subunits” value was “significant down‐regulation of complex I (blue) and complex IV (green) subunits of the ETC”. Also, the cell morphology result with PDL-hTERT cells is on record as “cell rounding”. Also, in data set [4], the “IDH2 mRNA levels versus vehicle control” value is recorded as “not significantly changed”. Further, the ΔTm at 70 µM at NUDT1 [5] (read-out: ΔTm Rep. 1) amounted to 3.29 °C; on NUDT1 [5] (read-out: ΔTm Rep. 2), 3.4 °C.

These data come from PMC12036814 (Angewandte Chemie (International Ed. in English), 2025).
